The record followed here is ChEMBL document CHEMBL1127843, “2-(3,4-Dichlorophenyl)-N-methyl-N-[(1S)-1-(3-isothiocyanatophenyl)-2-(1-pyrrolidinyl)ethyl]acetamide: an opioid receptor affinity label that produces selective and long-lasting kappa antagonism in mice” (J Med Chem, 1994).

Structures are written as SMILES.

This test relates to Mus musculus. In words: Compound was evaluated for […] antagonist activity towards Mouse vas deferens(MVD). It is filed as functional.

Regarding `CN(C(=O)Cc1ccc(Cl)c(Cl)c1)[C@H](CN1CCCC1)c1cccc(N=C=S)c1`, half-maximal inhibition (IC50) was put at 11.1 nM.
